Results reported in ChEMBL document CHEMBL1150494, “Inhibitory effect on HT-1080 tumor cell invasion in vitro using 9-(2-hydroxyethyl)adenine 2-phosphates” (1997).

Experiments:
[1] = molecular target: Matrix metalloproteinase-9 (Homo sapiens) (UniProt P14780); assay: Inhibition of collagen IV degradation by matrix metalloprotease-9 at 10 uM
[2] = molecular target: Matrix metalloproteinase-9 (Homo sapiens) (UniProt P14780); assay: Inhibition of collagen IV degradation by matrix metalloprotease-9 at 100 uM
HT-1080 [3] = assay: In vitro inhibitory activity against HT1080 tumor cell invasion using Matrigel (MG) at a concentration of 100 uM; assay type: functional, Homo sapiens
HT-1080 [4] = assay: In vitro inhibitory activity against HT1080 tumor cell invasion using Matrigel (MG) at a concentration of 10 uM; assay type: functional, Homo sapiens

Matrix metalloproteinase-9 (Homo sapiens), sequence (P14780 whole entry): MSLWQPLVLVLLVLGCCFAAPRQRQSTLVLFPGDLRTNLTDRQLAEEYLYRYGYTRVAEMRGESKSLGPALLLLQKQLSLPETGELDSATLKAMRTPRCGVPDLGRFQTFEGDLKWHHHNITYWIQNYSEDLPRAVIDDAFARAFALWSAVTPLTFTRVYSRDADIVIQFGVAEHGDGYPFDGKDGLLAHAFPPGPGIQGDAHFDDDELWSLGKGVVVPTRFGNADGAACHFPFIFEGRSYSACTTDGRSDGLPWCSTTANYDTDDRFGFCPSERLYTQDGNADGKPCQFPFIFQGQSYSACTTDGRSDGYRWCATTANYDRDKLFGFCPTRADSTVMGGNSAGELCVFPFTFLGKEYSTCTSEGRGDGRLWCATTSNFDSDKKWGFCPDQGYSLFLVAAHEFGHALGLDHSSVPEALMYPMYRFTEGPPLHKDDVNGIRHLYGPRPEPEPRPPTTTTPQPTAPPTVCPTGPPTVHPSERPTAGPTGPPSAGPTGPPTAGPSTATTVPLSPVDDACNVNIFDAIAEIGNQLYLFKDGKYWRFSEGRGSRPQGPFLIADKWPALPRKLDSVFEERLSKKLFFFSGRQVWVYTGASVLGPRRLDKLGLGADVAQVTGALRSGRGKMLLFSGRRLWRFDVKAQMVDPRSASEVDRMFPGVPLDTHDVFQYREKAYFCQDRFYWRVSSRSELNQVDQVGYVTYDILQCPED

Structure (SMILES)	Inhibition ratio [1] [%]	Inhibition ratio [2] [%]	Inhibition ratio (HT-1080 [3]) [%]	Inhibition ratio (HT-1080 [4]) [%]
Nc1ncnc2c1nc(Br)n2CCOP(=O)(O)O	23	41	~41	~23
O=P(O)(O)OCCn1cnc2c(Cl)ncnc21		12	~12	
Nc1ncnc2c1ncn2CCOP(=O)(O)O	32	57	53	46
Nc1ncnc2c1ncn2CCO	2	18	~50	~2
CNc1ncnc2c1ncn2CCOP(=O)(O)O	46	55	~54	~46
Nc1ncnc2c1ncn2CCOP(=O)(O)OP(=O)(O)OP(=O)(O)O	53	69	~36	~35
